Among the data in PMC9352556, “Glycogen synthase kinase homolog Rim11 regulates lipid synthesis through the phosphorylation of Pah1 phosphatidate phosphatase in yeast” (The Journal of Biological Chemistry, 2022) are Km values, retold here.

One data set has as its target T1, Pah1 (Saccharomyces cerevisiae, UniProt P32567).
T1 construct: unphosphorylated
T1 sequence (P32567 1-862): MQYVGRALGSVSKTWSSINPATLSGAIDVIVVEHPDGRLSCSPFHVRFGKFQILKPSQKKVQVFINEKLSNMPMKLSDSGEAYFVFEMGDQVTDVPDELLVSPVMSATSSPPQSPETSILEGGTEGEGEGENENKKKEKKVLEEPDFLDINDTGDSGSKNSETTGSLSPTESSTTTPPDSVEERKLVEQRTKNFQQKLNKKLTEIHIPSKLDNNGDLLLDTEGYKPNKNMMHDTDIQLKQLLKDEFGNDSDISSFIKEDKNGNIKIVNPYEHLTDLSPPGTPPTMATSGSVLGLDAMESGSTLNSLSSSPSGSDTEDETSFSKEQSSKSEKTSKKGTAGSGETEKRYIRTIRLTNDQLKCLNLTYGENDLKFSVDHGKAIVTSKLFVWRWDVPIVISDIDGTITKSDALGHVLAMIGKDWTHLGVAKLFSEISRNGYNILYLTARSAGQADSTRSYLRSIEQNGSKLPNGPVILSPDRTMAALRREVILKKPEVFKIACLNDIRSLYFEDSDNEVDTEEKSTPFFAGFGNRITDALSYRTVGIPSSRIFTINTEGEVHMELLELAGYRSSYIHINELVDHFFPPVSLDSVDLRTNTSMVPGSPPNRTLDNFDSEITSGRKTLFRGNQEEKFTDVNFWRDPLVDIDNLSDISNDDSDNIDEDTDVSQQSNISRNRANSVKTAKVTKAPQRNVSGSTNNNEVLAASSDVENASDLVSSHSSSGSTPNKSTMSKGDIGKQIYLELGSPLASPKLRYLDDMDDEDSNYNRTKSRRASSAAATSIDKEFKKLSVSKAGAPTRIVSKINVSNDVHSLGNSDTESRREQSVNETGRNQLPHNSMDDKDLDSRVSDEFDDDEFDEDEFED
The data set is described as follows: release of […] from […]PA, Triton X-100/PA mixed micelles. It counts as biochemical. Particulars: unphosphorylated Pah1; surface concentration of PA in micelles; cooperative, n = 3.4; 1 mM MgCl2, pH 7.5, 30 °C; labelled compound.

Substrate in the data set “purified protein”: Nc1ncnc2c1ncn2[C@@H]1O[C@H](COP(=O)(O)OP(=O)(O)OP(=O)(O)O)[C@@H](O)[C@H]1O
The data set is described as follows: purified protein. It counts as biochemical, Saccharomyces cerevisiae. The settings on record: co-substrate 0.25 μM E. coli-expressed Pah1, 10 mM MgCl2, pH 7.5, 30 °C, labelled compound.

phosphatidate: at Pah1, the Km came to 4.2 mol %.

B1: Rim11 (Saccharomyces cerevisiae S288C) (protein)
chain: MNIQSNNSPNLSNNIVSKQVYYAHPPPTIDPNDPVQISFPTTEVVGHGSFGVVFATVIQETNEKVAIKKVLQDKRFKNRELEIMKMLSHINIIDLKYFFYERDSQDEIYLNLILEYMPQSLYQRLRHFVHQRTPMSRLEIKYYMFQLFKSLNYLHHFANVCHRDIKPQNLLVDPETWSLKLCDFGSAKQLKPTEPNVSYICSRYYRAPELIFGATNYTNQIDIWSSGCVMAELLLGQPMFPGESGIDQLVEIIKILGTPSKQEICSMNPNYMEHKFPQIKPIPLSRVFKKEDDQTVEFLADVLKYDPLERFNALQCLCSPYFDELKLDDGKINQITTDLKLLEFDENVELGHLSPDELSSVKKKLYPKSK
notes: purified from S. cerevisiae (pSK001, pYES2); endogenously phosphorylated (Tyr199)
As for B1, in the data set “purified protein”, the Km was 30 µM.
